What was measured:
[1] = test system: barnyardgrass; experiment: Test A pre-/postemergence herbicide test; type: in vivo, Echinochloa crus-galli; settings: for Barnyardgrass plant response rating: Preemergence, visual rating on 0 to 100 scale (0 no effect, 100 complete control)
Summary of the method: (§1)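 Both application timings used compounds in a non-phytotoxic solvent plus surfactant. Pre-emergence: soil sprayed directly after seeding into loam/sand. Post-emergence: foliage of 2–10 cm seedlings (1–2 leaves) sprayed. Injury rated ~10 days later, 0–100.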

[2] = test system: crabgrass, large; experiment: Test A pre-/postemergence herbicide test; type: in vivo, Digitaria sanguinalis; settings: for Crabgrass, Large plant response rating: Preemergence, visual rating on 0 to 100 scale (0 no effect, 100 complete control)
Summary of the method: as §1

[3] = test system: giant foxtail; experiment: Test A pre-/postemergence herbicide test; type: in vivo, Setaria faberii; settings: for Foxtail, Giant plant response rating: Preemergence, visual rating on 0 to 100 scale (0 no effect, 100 complete control)
Summary of the method: as §1

[4] = test system: morningglory; experiment: Test A pre-/postemergence herbicide test; type: in vivo, Ipomoea spp.; settings: for Morningglory plant response rating: Preemergence, visual rating on 0 to 100 scale (0 no effect, 100 complete control)
Summary of the method: as §1

[5] = test system: pigweed; experiment: Test A pre-/postemergence herbicide test; type: in vivo, Amaranthus retroflexus; settings: for Pigweed plant response rating: Preemergence, visual rating on 0 to 100 scale (0 no effect, 100 complete control)
Summary of the method: as §1

[6] = test system: velvetleaf; experiment: Test A pre-/postemergence herbicide test; type: in vivo, Abutilon theophrasti; settings: for Velvetleaf plant response rating: Preemergence, visual rating on 0 to 100 scale (0 no effect, 100 complete control)
Summary of the method: as §1

[7] = test system: wheat; experiment: Test A pre-/postemergence herbicide test; type: in vivo, Triticum aestivum; settings: for Wheat plant response rating: Preemergence, visual rating on 0 to 100 scale (0 no effect, 100 complete control)
Summary of the method: as §1

[8] = test system: corn; experiment: Test A pre-/postemergence herbicide test; type: in vivo, Zea mays; settings: for Corn plant response rating: Preemergence, visual rating on 0 to 100 scale (0 no effect, 100 complete control)
Summary of the method: as §1

[9] = test system: rice; experiment: Test B flooded paddy test; type: in vivo, Oryza sativa; settings: 250 g ai/ha, Flood; scale of 0 to 100 where 0 is no effect and 100 is complete control
Experimental: (§2) Plant species in the flooded paddy test selected from rice (Oryza sativa), sedge, umbrella (small-flower umbrella sedge, Cyperus difformis), ducksalad (Heteranthera limosa), and barnyardgrass (Echinochloa crus-galli) were grown to the 2-leaf stage for testing. At time of treatment, test pots were flooded to 3 cm above the soil surface, treated by application of test compounds directly to the paddy water, and then maintained at that water depth for the duration of the test. Treated plants and controls were maintained in a greenhouse for 13 to 15 days, after which time all species were compared to controls and visually evaluated. Plant response ratings, summarized in Table B, are based on a scale of 0 to 100 where 0 is no effect and 100 is complete control. A dash (-) response means no test result.

[10] = test system: sedge, umbrella; experiment: Test B flooded paddy test; type: in vivo, Cyperus difformis; settings: 250 g ai/ha, Flood; scale of 0 to 100 where 0 is no effect and 100 is complete control
Experimental: as §2

[11] = test system: ducksalad; experiment: Test B flooded paddy test; type: in vivo, Heteranthera limosa; settings: 250 g ai/ha, Flood; scale of 0 to 100 where 0 is no effect and 100 is complete control
Experimental: as §2

[12] = test system: barnyardgrass; experiment: Test B flooded paddy test; type: in vivo, Echinochloa crus-galli; settings: 250 g ai/ha, Flood; scale of 0 to 100 where 0 is no effect and 100 is complete control
Experimental: as §2

[13] = Postemergence, 125 g ai/ha, 0 to 100 scale, 0 no effect, 100 complete control
[14] = Postemergence, 500 g ai/ha, 0 to 100 scale (0 no effect, 100 complete control)
[15] = preemergence, 500 g ai/ha, 0 to 100 scale (0 no effect, 100 complete control)
[16] = preemergence, 500 g ai/ha, 0 to 100 scale

| SMILES | Plant response rating, Barnyardgrass [1, 13] | Plant response rating, Barnyardgrass [1, 14] | Barnyardgrass plant response rating ([1]; 125 g ai/ha) | Plant response rating, Barnyardgrass [1, 15] | Plant response rating, Crabgrass, Large [2, 13] | Plant response rating, Crabgrass, Large [2, 14] | Crabgrass, Large plant response rating ([2]; 125 g ai/ha) | Plant response rating, Crabgrass, Large [2, 16] | Plant response rating, Foxtail, Giant [3, 13] | Plant response rating, Foxtail, Giant [3, 14] | Foxtail, Giant plant response rating ([3]; 125 g ai/ha) | Plant response rating, Foxtail, Giant [3, 16] | Plant response rating, Morningglory [4, 13] | Plant response rating, Morningglory [4, 14] | Morningglory plant response rating ([4]; 125 g ai/ha) | Plant response rating, Morningglory [4, 16] | Plant response rating, Pigweed [5, 13] | Plant response rating, Pigweed [5, 14] | Pigweed plant response rating ([5]; 125 g ai/ha) | Plant response rating, Pigweed [5, 16] | other results |
| --- | --- | --- | --- | --- | --- | --- | --- | --- | --- | --- | --- | --- | --- | --- | --- | --- | --- | --- | --- | --- | --- |
| O=C1NCC(c2ccc(Cl)c(Cl)c2)C1C(=O)Nc1ccccc1OC(F)(F)F (racemic) [Compound 32] | 0 | 0 | 0 | 0 | 0 | 30 | 80 | 80 | 0 | 40 | 70 | 80 | 0 | 0 | 0 | 0 | 0 | 0 | 0 | 0 | Plant response rating, Velvetleaf [6, 13]: 0; Plant response rating, Velvetleaf [6, 14]: 0; Velvetleaf plant response rating ([6]; 125 g ai/ha): 0; Plant response rating, Velvetleaf [6, 16]: 0; Plant response rating, Wheat [7, 13]: 0; Plant response rating, Wheat [7, 14]: 0; Wheat plant response rating ([7]; 125 g ai/ha): 0; Plant response rating, Wheat [7, 16]: 0; Plant response rating, Corn [8, 13]: 0; Plant response rating, Corn [8, 14]: 0; Corn plant response rating ([8]; 125 g ai/ha): 0; Plant response rating, Corn [8, 16]: 0; Plant response rating, Rice [9]: 0; Plant response rating, Sedge, Umbrella [10]: 0; Plant response rating, Ducksalad [11]: 50; Plant response rating, Barnyardgrass [12]: 0 |
| COc1cccc(C2CNC(=O)C2C(=O)Nc2ccccc2F)c1 (racemic) [Compound 36] | 0 | 80 | 40 | 80 | 0 | 20 | 20 | 80 | 0 | 20 | 20 | 70 | 0 | 0 | 0 | 0 | 0 | 0 | 0 | 0 | Plant response rating, Velvetleaf [6, 13]: 0; Plant response rating, Velvetleaf [6, 14]: 0; Velvetleaf plant response rating ([6]; 125 g ai/ha): 0; Plant response rating, Velvetleaf [6, 16]: 0; Plant response rating, Wheat [7, 13]: 0; Plant response rating, Wheat [7, 14]: 0; Wheat plant response rating ([7]; 125 g ai/ha): 0; Plant response rating, Wheat [7, 16]: 20; Plant response rating, Corn [8, 13]: 0; Plant response rating, Corn [8, 14]: 0; Corn plant response rating ([8]; 125 g ai/ha): 0; Plant response rating, Corn [8, 16]: 0; Plant response rating, Rice [9]: 0; Plant response rating, Sedge, Umbrella [10]: 40; Plant response rating, Ducksalad [11]: 60; Plant response rating, Barnyardgrass [12]: 0 |
| Cc1cccc(C2CNC(=O)C2C(=O)Nc2ccccc2F)c1 (racemic) [Compound 38] | 0 | 30 | 0 | 80 | 0 | 50 | 70 | 80 | 0 | 20 | 0 | 30 | 0 | 0 | 0 | 0 | 0 | 0 | 0 | 0 | Plant response rating, Velvetleaf [6, 13]: 0; Plant response rating, Velvetleaf [6, 14]: 0; Velvetleaf plant response rating ([6]; 125 g ai/ha): 0; Plant response rating, Velvetleaf [6, 16]: 0; Plant response rating, Wheat [7, 13]: 0; Plant response rating, Wheat [7, 14]: 0; Wheat plant response rating ([7]; 125 g ai/ha): 0; Plant response rating, Wheat [7, 16]: 0; Plant response rating, Corn [8, 13]: 0; Plant response rating, Corn [8, 14]: 0; Corn plant response rating ([8]; 125 g ai/ha): 0; Plant response rating, Corn [8, 16]: 0; Plant response rating, Rice [9]: 0; Plant response rating, Sedge, Umbrella [10]: 0; Plant response rating, Ducksalad [11]: 0; Plant response rating, Barnyardgrass [12]: 0 |
| N#Cc1cccc(C2CNC(=O)C2C(=O)Nc2ccccc2F)c1 (racemic) [Compound 72] | 20 | 60 | 0 | 50 | 30 | 70 | 80 | 90 | 10 | 50 | 60 | 80 | 0 | 10 | 0 | 0 | 0 | 0 | 0 | 0 | Plant response rating, Velvetleaf [6, 13]: 0; Plant response rating, Velvetleaf [6, 14]: 0; Velvetleaf plant response rating ([6]; 125 g ai/ha): 0; Plant response rating, Velvetleaf [6, 16]: 0; Plant response rating, Wheat [7, 13]: 0; Plant response rating, Wheat [7, 14]: 0; Wheat plant response rating ([7]; 125 g ai/ha): 0; Plant response rating, Wheat [7, 16]: 0; Plant response rating, Corn [8, 13]: 0; Plant response rating, Corn [8, 14]: 0; Corn plant response rating ([8]; 125 g ai/ha): 0; Plant response rating, Corn [8, 16]: 0; Plant response rating, Rice [9]: 0; Plant response rating, Sedge, Umbrella [10]: 0; Plant response rating, Ducksalad [11]: 60; Plant response rating, Barnyardgrass [12]: 0 |

Source: US10294202B2, “Pyrrolidinones as herbicides” (FMC Corporation, priority 2013, dated 2019)
